Measured values: patent US9828396B2, “Alkyne compounds for treatment of complement mediated disorders” (Achillion Pharmaceuticals, Inc., priority 2014, dated 2017)

Molecular target: Human factor D (Homo sapiens (Human), UniProt P00746)
Assay: Human Factor D Assay
Assay type: biochemical
Conditions: Human factor D 80 nM, substrate Z-L-Lys-SBzl, assay of Example 12
Procedure: Example 12. Human Factor D Assay
Human factor D (purified from human serum, Complement Technology, Inc.) at 80 nM final concentration is incubated with test compound at various concentrations for 5 minutes at room temperature in 50 mM Tris, 1M NaCl, pH 7.5. A synthetic substrate Z-L-Lys-SBzl and DTNB (Ellman's reagent) are added to final concentrations of 100 μM each. The increase in color is recorded at OD405 nm in a microplate in kinetic mode over 30 minutes with 30 second time points in a spectrofluorimeter. IC50 values are calculated by non-linear regression from the percentage of inhibition of complement factor D activity as a function of test compound concentration.

Human factor D, sequence (P00746 26-253): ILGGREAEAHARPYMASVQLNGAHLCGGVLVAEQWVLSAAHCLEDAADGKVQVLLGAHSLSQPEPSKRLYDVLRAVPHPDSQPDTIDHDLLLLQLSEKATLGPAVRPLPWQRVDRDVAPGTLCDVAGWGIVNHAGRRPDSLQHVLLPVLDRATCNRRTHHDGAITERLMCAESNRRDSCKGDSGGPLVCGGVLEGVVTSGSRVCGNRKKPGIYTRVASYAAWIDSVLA

SMILES	IC50 [nM]
N#Cc1cccc(NC(=O)[C@@H]2C[C@H]3C[C@H]3N2C(=O)Cn2nc(C(N)=O)c3cc(C#Cc4ncccn4)ccc32)n1 [Compound 57, 1-(2-((1R,3S,5R)-3-(6-cyanopyridin-2-ylcarbamoyl)-2-azabicyclo[3.1.0]hexan-2-yl)-2-oxoethyl)-5-(pyrimidin-2-ylethynyl)-1H-indazole-3-carboxamide]	< 1000
CC(=O)c1cn(CC(=O)N2C[C@H](F)C[C@H]2C(=O)NCc2cccc(Cl)c2F)c2ccc(C#Cc3ncccn3)cc12 [Compound 9, (2S,4R)-1-(2-(3-acetyl-5-(pyrimidin-2-ylethynyl)-1H-indol-1-yl)acetyl)-N-(3-chloro-2-fluorobenzyl)-4-fluoropyrrolidine-2-carboxamide]	< 1000
Cc1cnc(C#Cc2ccc3c(c2)c(C(N)=O)nn3CC(=O)N2C[C@H](F)C[C@H]2C(=O)Nc2cccc(Br)n2)nc1 [Compound 91, 1-(2-((2S,4R)-2-(6-bromopyridin-2-ylcarbamoyl)-4-fluoropyrrolidin-1-yl)-2-oxoethyl)-5-((5-methylpyrimidin-2-yl)ethynyl)-1H-indazole-3-carboxamide]	< 1000
NC(=O)c1nn(CC(=O)N2C[C@H](F)C[C@H]2C(=O)NCc2cccc(Cl)c2F)c2ccc(C#Cc3cn[nH]c3)cc12 [Compound 29, 5-((1H-pyrazol-4-yl)ethynyl)-1-(2-((2S,4R)-2-(3-chloro-2-fluorobenzylcarbamoyl)-4-fluoropyrrolidin-1-yl)-2-oxoethyl)-1H-indazole-3-carboxamide]	< 1000
NC(=O)c1nn(CC(=O)N2C[C@H](F)C[C@H]2C(=O)Nc2cncc(Br)c2)c2ccc(C#Cc3ncc(F)cn3)cc12 [Compound 68, 1-(2-((2S,4R)-2-(5-bromopyridin-3-ylcarbamoyl)-4-fluoropyrrolidin-1-yl)-2-oxoethyl)-5-((5-fluoropyrimidin-2-yl)ethynyl)-1H-indazole-3-carboxamide]	< 1000
NC(=O)c1nn(CC(=O)N2[C@@H]3C[C@@H]3C[C@H]2C(=O)Nc2cccc(OC(F)(F)F)c2F)c2ccc(C#Cc3ncccn3)cc12 [Compound 34, 1-(2-((1R,3S,5R)-3-(2-fluoro-3-(trifluoromethoxy)phenyl-carbamoyl)-2-azabicyclo[3.1.0]hexan-2-yl)-2-oxoethyl)-5-(pyrimidin-2-ylethynyl)-1H-indazole-3-carboxamide]	< 1000
NC(=O)c1nn(CC(=O)N2C[C@H](F)C[C@H]2C(=O)Nc2cncc(C(F)(F)F)n2)c2ccc(C#Cc3ncc(F)cn3)cc12 [Compound 70, 1-(2-((2S,4R)-4-fluoro-2-(6-(trifluoromethyl)pyrazin-2-ylcarbamoyl)pyrrolidin-1-yl)-2-oxoethyl)-5-((5-fluoropyrimidin-2-yl)ethynyl)-1H-indazole-3-carboxamide]	< 1000
NC(=O)c1nn(CC(=O)N2C[C@H](F)C[C@H]2C(=O)Nc2cccc(-c3cccc(Cl)c3)c2F)c2ccc(C#Cc3ncccn3)cc12 [Compound 30, 1-(2-((2S,4R)-2-(3′-chloro-2-fluorobiphenyl-3-ylcarbamoyl)-4-fluoropyrrolidin-1-yl)-2-oxoethyl)-5-(pyrimidin-2-ylethynyl)-1H-indazole-3-carboxamide]	< 1000
NC(=O)c1nn(CC(=O)N2[C@@H]3C[C@@H]3C[C@H]2C(=O)Nc2cccc(-c3ccccc3Cl)c2F)c2ccc(C#Cc3ncc(F)cn3)cc12 [Compound 53, 1-(2-((1R,3S,5R)-3-(2′-chloro-2-fluorobiphenyl-3-ylcarbamoyl)-2-azabicyclo[3.1.0]hexan-2-yl)-2-oxoethyl)-5-((5-fluoropyrimidin-2-yl)ethynyl)-1H-indazole-3-carboxamide]	< 1000
CC(=O)c1cn(CC(=O)N2C[C@H](F)C[C@H]2C(=O)NCc2cccc(Cl)c2F)c2ccc(C#Cc3cnsc3)cc12 [Compound 18, (2S,4R)-1-(2-(3-acetyl-5-(isothiazol-4-ylethynyl)-1H-indol-1-yl)acetyl)-N-(3-chloro-2-fluorobenzyl)-4-fluoropyrrolidine-2-carboxamide]	< 1000
NC(=O)c1nn(CC(=O)N2C[C@H](F)C[C@H]2C(=O)NCc2cccc(Cl)c2F)c2cnc(C#Cc3ccccc3)cc12 [Compound 67, 1-(2-((2S,4R)-2-(3-chloro-2-fluorobenzylcarbamoyl)-4-fluoropyrrolidin-1-yl)-2-oxoethyl)-5-(phenylethynyl)-1H-pyrazolo[3,4-c]pyridine-3-carboxamide]	< 1000
NC(=O)c1nn(CC(=O)N2C[C@H](F)C[C@H]2C(=O)Nc2cccc(-c3ccccc3Cl)c2F)c2ccc(C#Cc3ncc(F)cn3)cc12 [Compound 55, 1-(2-((2S,4R)-2-(2′-chloro-2-fluorobiphenyl-3-ylcarbamoyl)-4-fluoropyrrolidin-1-yl)-2-oxoethyl)-5-((5-fluoropyrimidin-2-yl)ethynyl)-1H-indazole-3-carboxamide]	< 1000
NC(=O)c1nn(CC(=O)N2C[C@H](F)C[C@H]2C(=O)Nc2cccc(Br)n2)c2ccc(C#Cc3ncc(F)cn3)cc12 [Compound 46, 1-(2-((2S,4R)-2-(6-bromopyridin-2-ylcarbamoyl)-4-fluoropyrrolidin-1-yl)-2-oxoethyl)-5-((5-fluoropyrimidin-2-yl)ethynyl)-1H-indazole-3-carboxamide]	< 1000
NC(=O)c1nn(CC(=O)N2C[C@H](F)C[C@H]2C(=O)Nc2nc(Cl)ccc2F)c2ccc(C#Cc3ncc(F)cn3)cc12 [Compound 81, 1-(2-((2S,4R)-2-(6-chloro-3-fluoropyridin-2-ylcarbamoyl)-4-fluoropyrrolidin-1-yl)-2-oxoethyl)-5-((5-fluoropyrimidin-2-yl)ethynyl)-1H-indazole-3-carboxamide]	< 1000
NC(=O)c1nn(CC(=O)N2C[C@H](F)C[C@H]2C(=O)Nc2cccc(-c3ccccc3Cl)c2F)c2ccc(C#Cc3cnccn3)cc12 [Compound 83, 1-(2-((2S,4R)-2-(2′-chloro-2-fluorobiphenyl-3-ylcarbamoyl)-4-fluoropyrrolidin-1-yl)-2-oxoethyl)-5-(pyrazin-2-ylethynyl)-1H-indazole-3-carboxamide]	< 1000
CC(=O)c1cn(CC(=O)N2C[C@H](F)C[C@H]2C(=O)NCc2cccc(Cl)c2F)c2ccc(C#Cc3ncc(O)cn3)cc12 [Compound 13, (2S,4R)-1-(2-(3-acetyl-5-((5-hydroxypyrimidin-2-yl)ethynyl)-1H-indol-1-yl)acetyl)-N-(3-chloro-2-fluorobenzyl)-4-fluoropyrrolidine-2-carboxamide]	< 1000
CC(=O)c1cn(CC(=O)N2C[C@H](F)C[C@H]2C(=O)Nc2cccc(Br)n2)c2ccc(C#Cc3ncccn3)cc12 [Compound 42, (2S,4R)-1-(2-(3-acetyl-5-(pyrimidin-2-ylethynyl)-1H-indol-1-yl)acetyl)-N-(6-bromopyridin-2-yl)-4-fluoropyrrolidine-2-carboxamide]	< 1000
CC(=O)c1cn(CC(=O)N2C[C@H](F)C[C@H]2C(=O)NCc2cccc(Cl)c2F)c2cc(C#CC(=O)O)ccc12 [Compound 2, 3-(3-acetyl-1-(2-((2S,4R)-2-(3-chloro-2-fluorobenzylcarbamoyl)-4-fluoropyrrolidin-1-yl)-2-oxoethyl)-1H-indol-6-yl)propiolic acid]	< 1000
CC(=O)c1cn(CC(=O)N2C[C@H](F)C[C@H]2C(=O)NCc2cccc(Cl)c2F)c2ccc(C#Cc3c[nH]c(=O)nc3N)cc12 [Compound 7, (2S,4R)-1-(2-(3-acetyl-5-((4-amino-2-oxo-1,2-dihydropyrimidin-5-yl)ethynyl)-1H-indol-1-yl)acetyl)-N-(3-chloro-2-fluorobenzyl)-4-fluoropyrrolidine-2-carboxamide]	< 1000
NC(=O)c1nn(CC(=O)N2C[C@H](F)C[C@H]2C(=O)Nc2ccc3cccc(Cl)c3n2)c2ccc(C#Cc3ncc(F)cn3)cc12 [Compound 71, 1-(2-((2S,4R)-2-(8-chloroquinolin-2-ylcarbamoyl)-4-fluoropyrrolidin-1-yl)-2-oxoethyl)-5-((5-fluoropyrimidin-2-yl)ethynyl)-1H-indazole-3-carboxamide]	< 1000
NC(=O)c1nn(CC(=O)N2C[C@H](F)C[C@H]2C(=O)Nc2cncc(-c3ccccc3Cl)n2)c2ccc(C#Cc3ncc(F)cn3)cc12 [Compound 85, 1-(2-((2S,4R)-2-(6-(2-chlorophenyl)pyrazin-2-ylcarbamoyl)-4-fluoropyrrolidin-1-yl)-2-oxoethyl)-5-((5-fluoropyrimidin-2-yl)ethynyl)-1H-indazole-3-carboxamide]	< 1000
NC(=O)c1nn(CC(=O)N2C[C@H](F)C[C@H]2C(=O)Nc2cncc(-c3cc(F)c(F)cc3Cl)n2)c2ccc(C#Cc3ncc(F)cn3)cc12 [Compound 87, 1-(2-((2S,4R)-2-(6-(2-chloro-4,5-difluorophenyl)pyrazin-2-ylcarbamoyl)-4-fluoropyrrolidin-1-yl)-2-oxoethyl)-5-((5-fluoropyrimidin-2-yl)ethynyl)-1H-indazole-3-carboxamide]	< 1000
CC(=O)c1nn(CC(=O)N2C[C@H](F)C[C@H]2C(=O)Nc2cccc(Br)n2)c2ccc(C#Cc3ncc(F)cn3)cc12 [Compound 90, (2S,4R)-1-(2-(3-acetyl-5-((5-fluoropyrimidin-2-yl)ethynyl)-1H-indazol-1-yl)acetyl)-N-(6-bromopyridin-2-yl)-4-fluoropyrrolidine-2-carboxamide]	< 1000
CC(=O)c1cn(CC(=O)N2C[C@H](F)C[C@H]2C(=O)NCc2cccc(Cl)c2F)c2ccc(C#Cc3cnccn3)cc12 [Compound 26, (2S,4R)-1-(2-(3-acetyl-5-(pyrazin-2-ylethynyl)-1H-indol-1-yl)acetyl)-N-(3-chloro-2-fluorobenzyl)-4-fluoropyrrolidine-2-carboxamide]	< 1000
CC(=O)c1cn(CC(=O)N2C[C@H](F)C[C@H]2C(=O)NCc2cccc(Cl)c2F)c2ccc(C#Cc3ccncc3)cc12 [Compound 17, (2S,4R)-1-(2-(3-acetyl-5-(pyridin-4-ylethynyl)-1H-indol-1-yl)acetyl)-N-(3-chloro-2-fluorobenzyl)-4-fluoropyrrolidine-2-carboxamide]	< 1000
